Experimental data published in patent US12485122B2, “Combination of palbociclib and adagrasib for lung cancer” (Mirati Therapeutics, Inc., priority 2018, dated 2025).

Key:
Type in all cases: in vivo, nude/nude mice
SW1573 cells = test: SW1573 tumor bearing mice, single agents and combination; conditions: for tumor growth inhibition: Day 28, single agent, Compound 478 100 mg/kg or palbociclib 130 mg/kg p.o. daily; for Average Tumor Volume: Compound 478 100 mg/kg, palbociclib 130 mg/kg, 7 mice averaged
Protocol: (§1) Immunocompromised nude/nude mice were inoculated in the right hind flank with cells or patient derived tumor samples harboring a KRas G12C mutation. When tumor volumes reached between 200-400 mm^3 in size, the mice were divided into four groups of 5-12 mice each. The first group was administered vehicle only. […] The fourth group was administered the single agent dose of the KRas G12C inhibitor in combination with the single agent dose of the CDK 4/6 inhibitor. […] Tumor volumes were measured using a caliper every two-three days and tumor volumes are calculated by the formula: […].
For example, 28 nude/nude mice were inoculated in the right hind limb with 5×10^6 SW1573 cells.

H2122 cells = test: H2122 tumor bearing mice, single agents and combination; conditions: for tumor growth inhibition: Day 23, single agent, Compound 478 100 mg/kg or palbociclib 130 mg/kg p.o. daily; for Average Tumor Volume: Compound 478 100 mg/kg, palbociclib 130 mg/kg, 5 mice averaged
Protocol: as §1
Similarly, 20 nude/nude mice were inoculated in the right hind limb with 5×10^6 H2122 cells.

LU6405 cells = test: LU6405 tumor bearing mice, single agents and combination; conditions: for Average Tumor Volume: Compound 478 100 mg/kg, palbociclib 130 mg/kg, 5 mice averaged
Protocol: as §1
In another experiment, on Day 0, 20 nude/nude mice were inoculated in the right hind limb with 5×10^6 LU6405 cells.

[1] = Study Day 23, p.o. daily for 21 days
[2] = Study Day 22, p.o. daily for 21 days
[3] = Study Day 24, p.o. daily for 21 days

| Structure (SMILES) | tumor growth inhibition (SW1573 cells) [%] | Average Tumor Volume (SW1573 cells; Study Day 0, p.o. daily) [mm^3] | Average Tumor Volume (SW1573 cells; Study Day 6, p.o. daily) [mm^3] | Average Tumor Volume (SW1573 cells; Study Day 9, p.o. daily) [mm^3] | Average Tumor Volume (SW1573 cells; Study Day 14, p.o. daily) [mm^3] | Average Tumor Volume (SW1573 cells; Study Day 16, p.o. daily) [mm^3] | Average Tumor Volume (SW1573 cells; Study Day 18, p.o. daily) [mm^3] | Average Tumor Volume (SW1573 cells; Study Day 21, p.o. daily) [mm^3] | Average Tumor Volume (SW1573 cells; Study Day 23, p.o. daily) [mm^3] | Average Tumor Volume (SW1573 cells; Study Day 25, p.o. daily) [mm^3] | Average Tumor Volume (SW1573 cells; Study Day 28, p.o. daily) [mm^3] | tumor growth inhibition (H2122 cells) [%] | Average Tumor Volume (H2122 cells; Study Day 0, p.o. daily) [mm^3] | Average Tumor Volume (H2122 cells; Study Day 2, p.o. daily) [mm^3] | Average Tumor Volume (H2122 cells; Study Day 4, p.o. daily) [mm^3] | Average Tumor Volume (H2122 cells; Study Day 7, p.o. daily) [mm^3] | Average Tumor Volume (H2122 cells; Study Day 9, p.o. daily) [mm^3] | Average Tumor Volume (H2122 cells; Study Day 11, p.o. daily) [mm^3] | Average Tumor Volume (H2122 cells; Study Day 14, p.o. daily) [mm^3] | Average Tumor Volume (H2122 cells; Study Day 16, p.o. daily) [mm^3] | other results |
| --- | --- | --- | --- | --- | --- | --- | --- | --- | --- | --- | --- | --- | --- | --- | --- | --- | --- | --- | --- | --- | --- |
| C=C(F)C(=O)N1CCN(c2nc(OC[C@@H]3CCCN3C)nc3c2CCN(c2cccc4cccc(Cl)c24)C3)C[C@@H]1CC#N [Compound 478] | 71 | 357 | 404 | 435 | 523 | 575 | 607 | 754 | 758 | 741 | 785 | 85 | 325 | 340 | 338 | 381 | 462 | 480 | 493 | 541 | Average Tumor Volume (H2122 cells; Study Day 18, p.o. daily): 537 mm^3; Average Tumor Volume (H2122 cells; Study Day 21, p.o. daily): 547 mm^3; Average Tumor Volume (H2122 cells; [1]): 547 mm^3; tumor growth inhibition (LU6405 cells; Day 24, single agent, Compound 478 100 mg/kg p.o. daily): 96%; Average Tumor Volume (LU6405 cells; Study Day 1, p.o. daily): 256.06 mm^3; Average Tumor Volume (LU6405 cells; Study Day 4, p.o. daily): 308.98 mm^3; Average Tumor Volume (LU6405 cells; Study Day 8, p.o. daily): 324.46 mm^3; Average Tumor Volume (LU6405 cells; Study Day 11, p.o. daily): 329.09 mm^3; Average Tumor Volume (LU6405 cells; Study Day 15, p.o. daily): 310.21 mm^3; Average Tumor Volume (LU6405 cells; Study Day 18, p.o. daily): 290.88 mm^3; Average Tumor Volume (LU6405 cells; [2]): 257.34 mm^3; Average Tumor Volume (LU6405 cells; [3]): 249.19 mm^3 |
| CC(=O)c1c(C)c2cnc(Nc3ccc(N4CCNCC4)cn3)nc2n(C2CCCC2)c1=O [Palbociclib, 6-acetyl-8-cyclopentyl-5-methyl-2-((5-(piperazin-1-yl)pyridin-2-yl)amino)pyrido[2,3-d]pyrimidin-7(8H)-one] | 40 | 356 | 484 | 508 | 748 | 807 | 706 | 926 | 1029 | 1167 | 1240 | 65 | 326 | 385 | 493 | 601 | 646 | 663 | 748 | 765 | Average Tumor Volume (SW1573 cells; Study Day 3, p.o. daily): 444 mm^3; Average Tumor Volume (SW1573 cells; Study Day 11, p.o. daily): 515 mm^3; Average Tumor Volume (H2122 cells; Study Day 18, p.o. daily): 790 mm^3; Average Tumor Volume (H2122 cells; Study Day 21, p.o. daily): 836 mm^3; Average Tumor Volume (H2122 cells; [1]): 834 mm^3; Average Tumor Volume (LU6405 cells; Study Day 1, p.o. daily): 255.36 mm^3; Average Tumor Volume (LU6405 cells; Study Day 4, p.o. daily): 440.79 mm^3; Average Tumor Volume (LU6405 cells; Study Day 8, p.o. daily): 659.01 mm^3; Average Tumor Volume (LU6405 cells; Study Day 11, p.o. daily): 834.95 mm^3; Average Tumor Volume (LU6405 cells; Study Day 15, p.o. daily): 1165.80 mm^3; Average Tumor Volume (LU6405 cells; Study Day 18, p.o. daily): 1295.57 mm^3; Average Tumor Volume (LU6405 cells; [2]): 1363.40 mm^3; Average Tumor Volume (LU6405 cells; [3]): 1382.59 mm^3 |
